Experimental data reported in patent US20090221653A1, “7-(2-amino-1-hydroxy-ethyl)-4-hydroxybenzothiazol-2(3H)-one-derivatives as beta2 adrenoreceptor agonists” (AstraZeneca AB, priority 2005, published 2009).
Counter-ions that a name gives are not always drawn.

How the values were obtained:
β2 receptor = molecular target: T1, β2 receptor (Homo sapiens, UniProt P07550); assay: Adrenergic β2 mediated cAMP production in H292 cells (AlphaScreen cAMP detection); format: cell-based; conditions: for EC50: cAMP, test compounds incubated 10 minutes, 300 μM rolipram; for Intrinsic Activity: fraction relative to the maximum activity determined for formoterol, 10 minutes incubation
T1 construct: endogenous in cells; host or cells: H292 cells
Experimental: H292 cells were grown in RPMI (Roswell Park Memorial Institute) medium containing, 10% (v/v) FBS (foetal bovine serum) and 2 mM L-glutamine. Cells were grown in 225 cm2 flasks containing 25 mL media in a humidified incubator at 37° C., 5% CO2. Cells were harvested from the flask and passaged at a 1 in 10 dilution once per week.
The media from flasks containing H292 cells was removed, rinsed with 10 mL PBS (phosphate buffered saline) and replaced with 10 mL Accutase™ cell detachment solution. Flasks were incubated for 15 minutes in a humidified incubator at 37° C., 5% CO2. The cell suspension was counted and the cells re-suspended in RPMI media (containing 10% (v/v) FBS and 2 mM L-glutamine) at 0.05×10^6 cells per mL. 5000 cells in 100 μL were added to each well of a tissue-culture-treated 96-well plate and the cells incubated overnight in a humidified incubator at 37° C., 5% CO2. The culture media was removed, washed twice with 100 μL assay buffer and replaced with 50 μL assay buffer. Cells were rested at room temperature for 20 minutes after which time 25 μL of rolipram (1.2 mM made up in assay buffer containing 2.4% (v/v) dimethylsulphoxide) was added. Cells were incubated with rolipram for 10 minutes after which time test compounds (made up as ×4 concentrated stocks in assay buffer containing 4% (v/v) dimethylsulphoxide) were added and the cells were incubated for 10 minutes at room temperature. Final rolipram concentration in the assay was 300 μM and final vehicle concentration was 1.6% (v/v) dimethylsulphoxide. The reaction was stopped by removing supernatants, washing once with 100 μL assay buffer and replacing with 50 μL lysis buffer. The cell monolayer was frozen at −80° C. for 30 minutes (or overnight).
The concentration of cAMP (cyclic adenosine monophosphate) in the cell lysate was determined using the AlphaScreen™ methodology. The frozen cell plate was thawed for 20 minutes on a plate shaker then 10 μL of the cell lysate was transferred to a 96-well white plate. 40 μL of mixed AlphaScreen™ detection beads (containing equal volumes of donor beads (pre-incubated with biotinylated cAMP in the dark for 30 minutes) and acceptor beads), was added to each well and the plate incubated at room temperature for 10 hours in the dark. The AlphaScreen™ signal was measured using an EnVision spectrophotometer (Perkin-Elmer Inc.) with the recommended manufacturer's settings. cAMP concentrations were determined by reference to a calibration curve determined in the same experiment using standard cAMP concentrations (made up in lysis buffer in a 96-well tissue-culture-treated plate and frozen/thawed alongside the test samples) and detected using the same protocol. Concentration response curves for agonists were constructed to determine both the pEC50 and Intrinsic Activity.

[1] = molecular target: T2, recombinant human Dopamine Subtype D2s receptors (Homo sapiens, UniProt P14416); assay: Dopamine D2 selectivity assay, inhibition of [3H]-spiperone binding; conditions: membranes, [3H]-spiperone 0.16 nM; read-out: D2 bind pIC50 (converted)
T2 construct: purchased Perkin Elmer
T2 sequence (P14416 1-414 isoform P14416-2): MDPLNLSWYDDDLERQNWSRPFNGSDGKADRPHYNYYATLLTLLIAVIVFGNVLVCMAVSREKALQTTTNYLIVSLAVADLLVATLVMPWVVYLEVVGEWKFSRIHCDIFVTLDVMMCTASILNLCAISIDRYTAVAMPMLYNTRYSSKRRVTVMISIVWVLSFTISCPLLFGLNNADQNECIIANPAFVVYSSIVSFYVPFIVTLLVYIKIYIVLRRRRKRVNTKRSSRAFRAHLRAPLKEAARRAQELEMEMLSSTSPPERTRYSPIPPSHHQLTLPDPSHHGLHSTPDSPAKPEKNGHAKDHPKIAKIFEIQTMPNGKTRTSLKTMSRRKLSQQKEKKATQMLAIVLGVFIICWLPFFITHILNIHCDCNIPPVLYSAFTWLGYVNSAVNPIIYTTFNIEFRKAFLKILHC

T1 sequence (P07550 whole entry): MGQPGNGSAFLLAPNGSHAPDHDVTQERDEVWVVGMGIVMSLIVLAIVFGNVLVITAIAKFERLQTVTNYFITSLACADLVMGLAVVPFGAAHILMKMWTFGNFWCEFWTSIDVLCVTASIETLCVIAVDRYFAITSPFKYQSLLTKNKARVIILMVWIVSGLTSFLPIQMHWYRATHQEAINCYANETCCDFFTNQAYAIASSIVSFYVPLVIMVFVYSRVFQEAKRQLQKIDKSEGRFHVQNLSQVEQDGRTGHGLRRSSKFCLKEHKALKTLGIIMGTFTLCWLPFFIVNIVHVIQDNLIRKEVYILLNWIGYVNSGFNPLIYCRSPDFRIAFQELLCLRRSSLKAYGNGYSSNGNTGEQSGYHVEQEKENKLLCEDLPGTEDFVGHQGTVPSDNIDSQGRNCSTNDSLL

| EC50 (β2 receptor) [pM] | Intrinsic Activity (β2 receptor) | IC50 [1] [pM] | Compound |
| --- | --- | --- | --- |
| 158 | 1.0 |  | O=c1[nH]c2c(O)ccc([C@@H](O)CNCCCS(=O)(=O)CCOCCc3cccc4ccccc34)c2s1 [Example 2, 4-Hydroxy-7-((1R)-1-hydroxy-2-{[3-({2-[2-(1-naphthyl)ethoxy]ethyl}sulfonyl)propyl]-amino}ethyl)-1,3-benzothiazol-2(3H)-one trifluoroacetate] |
| 100 | 0.9 | 794000 | Cl.O=c1[nH]c2c(O)ccc([C@@H](O)CNCCSCCOCCc3cccc4ccccc34)c2s1 [Example 4, 4-Hydroxy-7-((1R)-1-hydroxy-2-{[2-({2-[2-(1-naphthyl)ethoxy]ethyl}thio)ethyl]-amino}ethyl)-1,3-benzothiazol-2(3H)-one hydrochloride] |
